{"source": "paper PMC8641662", "about": "(Frontiers in Plant Science, 2021)", "molecules": {"B1": {"name": "red clover HDT1 (Trifolium pratense) (protein)", "chain": "MVTIIASHTVIPEEPTPQGPFWLSDMDQVVRIRDVPTLYIYKTPKKNQENKNIVETFKNSLSKILVHYYPIAGRLCYIEGGRLELNLNAKGAILVEAETEKTMNDYGDFSHFDTIKELVPMIDYNQPIEEIPNFVVQLTNFKNNEGFAIGVAFLHPLSDGLGAIKFINSWAKIARGETLEANELPFLDRKLLKFSHTPLEPRFEHLELKPLPLILGRKDASEEKEKKTSATLLKLSSEQVDKLKKKANEEDVLGIQKKEYSRPYSKFEVISAHIWRCASKARELEDNQESVIRFIADVKNRMIPPLPKNYFGNALTQTATKGYIGEITSKPLGYVAQKIREATELINDEYIRSQIDVVRSFEHLDDARKMFIGEKARYFGNPNFNLTSWLSMPVYEADFGWGKPNYFGLADVSPHDRAVILLSPDDDGSVLVSFHFQIAHMELFNKYFYEEI"}}, "key": {"[1]": {"test_system": "red clover HDT (HDT1)", "assay": "In vitro hydroxycinnamoyl-CoA transferase activity assay with crude E. coli extracts containing recombinant HDT, products by HPLC with PDA and MS", "type": "biochemical, red clover (Trifolium pratense L.)", "conditions": "p-coumaroyl-, caffeoyl- or feruloyl-CoA donor; HPLC with PDA and MS detection", "protocol": "General in vitro reactions for hydroxycinnamoyl-CoA transferase activity contained 100mM sodium phosphate buffer (pH 7.5), 25 to 50mM ascorbate, 1 to 2mM p-coumaroyl-, caffeoyl-, or feruloyl-CoA donor substrate, 1 to 6mM acceptor substrate (L-amino acids, shikimic acid, or malic acid), and red clover leaf or E. coli extract. When red clover extract was the enzyme source, reaction head space was exchanged for nitrogen to prevent oxidation of caffeoyl and L-DOPA moieties by endogenous PPO. Reactions were incubated at 30°C for up to 1h prior to being stopped by the addition of one-fifth volume of 10% formic acid. Precipitated protein was removed by centrifugation (17,000×g for 5min at room temperature) and the supernatant analyzed for reaction products by HPLC as described above.\nCrude E. coli extracts containing the recombinant proteins were incubated with hydroxycinnamoyl-CoAs and acceptors, and the reactions were analyzed by HPLC with PDA and MS detection. […] In the case of caffeoyl-L-Tyr and caffeoyl-L-DOPA, where authentic compound was available for purchase, the in vitro-formed products were indistinguishable from the purchased standards in terms of retention time, UV absorption spectrum, and (m/z). For caffeoyl-L-Tyr, we also produced sufficient compound via an HDT1-mediated reaction to carry out ^1H and ^13C NMR to further confirm product identity (Supplementary Figure S2). Chemical shifts were consistent with those previously published for this compound ([Stark and Hofmann, 2005]). […] We only tested L-amino acids with HDT1, since this is what is present in clovamide and what is most abundantly present in nature. […] In this case, ability of the D-amino acid substrates to serve as acceptor substrates could be due to their structural (including stereochemistry) similarity to the D-phenyllactic acid acceptor also used by this enzyme."}, "[2]": {"target": "red clover HDT1 (Trifolium pratense, UniProt A0A384ZRD3)", "assay": "Determination of kinetic parameters of HDT (initial rates by release of free CoA, DTNB, purified histidine-tagged HDT1)", "conditions": "for kcat / Km: variable acceptor substrate; for Km: pH 8.0, 25°C", "protocol": "Kinetic parameters for HDT were determined by measuring initial reaction rates by release of free CoA in real time using DTNB [5,5′-dithio-bis-(2-nitrobenzoic acid)] and spectroscopy as detailed elsewhere ([Sullivan and Bonawitz, 2018]). Measurements were made in a temperature-controlled spectrophotometer at 25°C. Reactions were carried out in 100mM sodium phosphate, 1mM EDTA, pH 8.0. Acceptor substrates were prepared in 1N HCl as 66.7×stock solutions, so an equal amount of 1N NaOH was added to reactions to neutralize the HCl (15mM final). Substrate and enzyme amounts used are detailed in Table 2.\nAll kinetic data analyses were carried out using GraphPad Prism version 7 or higher for Mac OS (GraphPad Software, La Jolla, CA, United States). Each analysis (i.e., series of substrate concentrations) was carried out in duplicate on different days with freshly prepared substrate and enzyme dilutions. Data were analyzed by non-linear regression of the replicated data. […] Kinetic parameters are reported±standard error (SE) as determined from the non-linear regression.\nMore limited analyses (explained below) were carried out with L-Phe and L-Leu acceptor substrates."}, "[3]": {"substrate": "N[C@@H](Cc1ccc(O)cc1)C(=O)O", "assay": "purified protein, by the assay type", "conditions": "other: variable acceptor substrate, pH 8.0, 25°C"}, "[4]": {"substrate": "N[C@@H](Cc1ccc(O)c(O)c1)C(=O)O", "assay": "purified protein, by the assay type", "conditions": "other: variable acceptor substrate, pH 8.0, 25°C"}, "[5]": {"conditions": "constant substrate FA-CoA (20μM)"}, "[6]": {"conditions": "constant substrate p-CA-CoA (20μM)"}, "[7]": {"conditions": "constant substrate CA-CoA (50μM)"}}}
{"molecule": "N[C@@H](Cc1ccc(O)c(O)c1)C(=O)O", "note": "[L-DOPA, L-3,4-dihydroxyphenlylalanine]", "values": [{"measurement": "Use as acceptor substrate (product formation with hydroxycinnamoyl-CoA donors)", "setting": "[1]", "result": "capable of transferring"}, {"measurement": "kcat", "setting": "[2]; [5]", "result": "0.75 ± 0.015", "unit": "s⁻¹"}, {"measurement": "kcat", "setting": "[2]; [6]", "result": "2.00 ± 0.022", "unit": "s⁻¹"}]}
{"molecule": "CC(C)C[C@H](N)C(=O)O", "note": "[L-Leu, L-leucine]", "values": [{"measurement": "Use as acceptor substrate (product formation with hydroxycinnamoyl-CoA donors)", "setting": "[1]", "result": "can also serve as acceptors"}, {"measurement": "Km", "setting": "[2]; [7]", "result": "> 10000", "unit": "µM"}]}
{"molecule": "N[C@@H](Cc1ccccc1)C(=O)O", "note": "[L-Phe, L-phenylalanine]", "values": [{"measurement": "Use as acceptor substrate (product formation with hydroxycinnamoyl-CoA donors)", "setting": "[1]", "result": "capable of transferring"}, {"measurement": "Km", "setting": "[2]; [7]", "result": "> 10000", "unit": "µM"}]}
{"molecule": "N[C@@H](Cc1c[nH]c2ccccc12)C(=O)O", "note": "[L-Trp, L-tryptophan]", "values": [{"measurement": "Use as acceptor substrate (product formation with hydroxycinnamoyl-CoA donors)", "setting": "[1]", "result": "can also serve as acceptors"}, {"measurement": "kcat", "setting": "[2]; [7]", "result": "1.21 ± 0.007", "unit": "s⁻¹"}, {"measurement": "Km", "setting": "[2]; [7]", "result": "1250 ± 26.7", "unit": "µM"}, {"measurement": "kcat", "setting": "[2]; [5]", "result": "0.35 ± 0.007", "unit": "s⁻¹"}, {"measurement": "Km", "setting": "[2]; [5]", "result": "273 ± 24.1", "unit": "µM"}, {"measurement": "kcat", "setting": "[2]; [6]", "result": "1.00 ± 0.009", "unit": "s⁻¹"}, {"measurement": "Km", "setting": "[2]; [6]", "result": "2160 ± 63.4", "unit": "µM"}]}
{"molecule": "N[C@@H](Cc1ccc(O)cc1)C(=O)O", "note": "[L-Tyr, L-tyrosine]", "values": [{"measurement": "Use as acceptor substrate (product formation with hydroxycinnamoyl-CoA donors)", "setting": "[1]", "result": "capable of transferring"}, {"measurement": "catalytic efficiency, fold higher compared to L-DOPA as acceptor", "setting": "[2]; acceptor substrate comparison", "result": "about 10 fold"}]}
{"molecule": "N=C(N)NCCC[C@H](N)C(=O)O", "note": "[arginine]", "values": [{"measurement": "Use as acceptor substrate (product formation with hydroxycinnamoyl-CoA donors)", "setting": "[1]", "result": "no product was detected"}]}
{"molecule": "O=C(O)CC(O)C(=O)O", "note": "(stereo not shown) [malic acid]", "values": [{"measurement": "Use as acceptor substrate (product formation with hydroxycinnamoyl-CoA donors)", "setting": "[1]", "result": "No reaction products were seen"}]}
{"molecule": "NCCc1ccc(O)cc1", "note": "[tyramine]", "values": [{"measurement": "Use as acceptor substrate (product formation with hydroxycinnamoyl-CoA donors)", "setting": "[1]", "result": "no reaction products were seen"}]}
{"molecule": "B1", "values": [{"measurement": "Km", "setting": "[3]; [7]", "result": "342.0 ± 14.37", "unit": "µM"}, {"measurement": "kcat", "setting": "[3]; [7]", "result": "9.12 ± 0.114", "unit": "s⁻¹"}, {"measurement": "kcat/Km", "setting": "[3]; [7]", "result": "26700 ± 1170", "unit": "M⁻¹ s⁻¹"}, {"measurement": "Km", "setting": "[3]; [5]", "result": "14.4 ± 0.64", "unit": "µM"}, {"measurement": "kcat", "setting": "[3]; [5]", "result": "0.69 ± 0.006", "unit": "s⁻¹"}, {"measurement": "kcat/Km", "setting": "[3]; [5]", "result": "47900 ± 2160", "unit": "M⁻¹ s⁻¹"}, {"measurement": "Km", "setting": "[3]; [6]", "result": "145.3 ± 5.56", "unit": "µM"}, {"measurement": "kcat", "setting": "[3]; [6]", "result": "2.74 ± 0.027", "unit": "s⁻¹"}, {"measurement": "kcat/Km", "setting": "[3]; [6]", "result": "18900 ± 750", "unit": "M⁻¹ s⁻¹"}, {"measurement": "Km", "setting": "[4]; [7]", "result": "2465.0 ± 65.88", "unit": "µM"}, {"measurement": "Km", "setting": "[4]; [5]", "result": "150.0 ± 7.65", "unit": "µM"}, {"measurement": "Km", "setting": "[4]; [6]", "result": "989.8 ± 35.92", "unit": "µM"}]}
